{"source": "patent US10597388B2", "about": "“Pyridazinone herbicides” (FMC CORPORATION, priority 2014, dated 2020)", "format_in_all_cases": "in vivo", "key": {"[1]": {"tested_on": "blackgrass (Alopecurus myosuroides)", "assay": "Test C greenhouse herbicide test, pre- and postemergence", "summary_of_the_method": "(§1)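 Greenhouse pots; pre-em on seeded loam:sand blend, post-em on 2–18 cm plants (1–4 leaf) in sphagnum peat/vermiculite medium. Formulation: non-phytotoxic solvent + surfactant. Read-out: visual % control (0–100) vs controls at 13–15 d.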"}, "corn (Zea mays)": {"tested_on": "corn (Zea mays)", "assay": "Test C greenhouse herbicide test, pre- and postemergence", "summary_of_the_method": "as §1"}, "[2]": {"tested_on": "crabgrass, large (large crabgrass, Digitaria sanguinalis)", "assay": "Test C greenhouse herbicide test, pre- and postemergence", "summary_of_the_method": "as §1"}, "[3]": {"tested_on": "foxtail, giant (giant foxtail, Setaria faberii)", "assay": "Test C greenhouse herbicide test, pre- and postemergence", "summary_of_the_method": "as §1"}, "[4]": {"tested_on": "johnsongrass (Sorghum halepense)", "assay": "Test C greenhouse herbicide test, pre- and postemergence", "summary_of_the_method": "as §1"}, "[5]": {"tested_on": "lambsquarters (Chenopodium album)", "assay": "Test C greenhouse herbicide test, pre- and postemergence", "summary_of_the_method": "as §1"}, "[6]": {"tested_on": "morningglory (Ipomoea coccinea)", "assay": "Test C greenhouse herbicide test, pre- and postemergence", "summary_of_the_method": "as §1"}, "[7]": {"tested_on": "nutsedge, yellow (yellow nutsedge, Cyperus esculentus)", "assay": "Test C greenhouse herbicide test, pre- and postemergence", "summary_of_the_method": "as §1"}, "[8]": {"tested_on": "oilseed rape (Brassica napus)", "assay": "Test C greenhouse herbicide test, pre- and postemergence", "summary_of_the_method": "as §1"}, "[9]": {"tested_on": "pigweed (Amaranthus retroflexus)", "assay": "Test C greenhouse herbicide test, pre- and postemergence", "summary_of_the_method": "as §1"}, "[10]": {"tested_on": "ragweed (common ragweed, Ambrosia elatior)", "assay": "Test C greenhouse herbicide test, pre- and postemergence", "summary_of_the_method": "as §1"}, "[11]": {"tested_on": "ryegrass, Italian (Italian ryegrass, Lolium multiflorum)", "assay": "Test C greenhouse herbicide test, pre- and postemergence", "summary_of_the_method": "as §1"}, "soybean (Glycine max)": {"tested_on": "soybean (Glycine max)", "assay": "Test C greenhouse herbicide test, pre- and postemergence", "summary_of_the_method": "as §1"}, "[12]": {"tested_on": "waterhemp (common waterhemp, Amaranthus rudis)", "assay": "Test C greenhouse herbicide test, pre- and postemergence", "summary_of_the_method": "as §1"}, "[13]": {"tested_on": "wheat (winter wheat, Triticum aestivum)", "assay": "Test C greenhouse herbicide test, pre- and postemergence", "summary_of_the_method": "as §1"}, "kochia (Kochia scoparia)": {"tested_on": "kochia (Kochia scoparia)", "assay": "Test C greenhouse herbicide test, postemergence", "summary_of_the_method": "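Steps: pot plants in peat-based medium; spray postemergence at 1- to 4-leaf stage; hold in greenhouse 13 to 15 d; score visually against controls from 0 (no effect) to 100 (complete control).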"}, "[14]": {"settings": "Postemergence, 31 g ai/ha, 0 to 100 scale (0 no effect, 100 complete control)"}, "[15]": {"settings": "Postemergence, 125 g ai/ha, scale 0 to 100, 0 is no effect, 100 is complete control"}, "[16]": {"settings": "Postemergence, 250 g ai/ha, scale 0 to 100, 0 no effect, 100 complete control, 13 to 15 d"}, "[17]": {"settings": "postemergence, 62 g ai/ha, scale 0 to 100, 0 no effect, 100 complete control"}}, "data": [{"smiles": "Cc1cc(C)c2ccccc2c1-c1c(O)cnn(C)c1=O", "note": "[Compound 51]", "values": [{"measurement": "Blackgrass plant response rating", "setting": "[1]; [14]", "value": 0}, {"measurement": "Plant response rating, Blackgrass", "setting": "[1]; [15]", "value": 0}, {"measurement": "Plant response rating, Blackgrass", "setting": "[1]; [16]", "value": 10}, {"measurement": "Blackgrass plant response rating", "setting": "[1]; [17]", "value": 0}, {"measurement": "Corn plant response rating", "setting": "corn (Zea mays); [14]", "value": 0}, {"measurement": "Plant response rating, Corn", "setting": "corn (Zea mays); [15]", "value": 0}, {"measurement": "Plant response rating, Corn", "setting": "corn (Zea mays); [16]", "value": 0}, {"measurement": "Corn plant response rating", "setting": "corn (Zea mays); [17]", "value": 0}, {"measurement": "Crabgrass, Large plant response rating", "setting": "[2]; [14]", "value": 0}, {"measurement": "Plant response rating, Crabgrass, Large", "setting": "[2]; [15]", "value": 10}, {"measurement": "Plant response rating, Crabgrass, Large", "setting": "[2]; [16]", "value": 10}, {"measurement": "Crabgrass, Large plant response rating", "setting": "[2]; [17]", "value": 5}, {"measurement": "Foxtail, Giant plant response rating", "setting": "[3]; [14]", "value": 5}, {"measurement": "Plant response rating, Foxtail, Giant", "setting": "[3]; [15]", "value": 15}, {"measurement": "Plant response rating, Foxtail, Giant", "setting": "[3]; [16]", "value": 35}, {"measurement": "Foxtail, Giant plant response rating", "setting": "[3]; [17]", "value": 5}, {"measurement": "Johnsongrass plant response rating", "setting": "[4]; [14]", "value": 0}, {"measurement": "Plant response rating, Johnsongrass", "setting": "[4]; [15]", "value": 0}, {"measurement": "Plant response rating, Johnsongrass", "setting": "[4]; [16]", "value": 0}, {"measurement": "Johnsongrass plant response rating", "setting": "[4]; [17]", "value": 0}, {"measurement": "Lambsquarters plant response rating", "setting": "[5]; [14]", "value": 5}, {"measurement": "Plant response rating, Lambsquarters", "setting": "[5]; [15]", "value": 65}, {"measurement": "Lambsquarters plant response rating", "setting": "[5]; [17]", "value": 50}, {"measurement": "Morningglory plant response rating", "setting": "[6]; [14]", "value": 5}, {"measurement": "Plant response rating, Morningglory", "setting": "[6]; [15]", "value": 75}, {"measurement": "Plant response rating, Morningglory", "setting": "[6]; [16]", "value": 75}, {"measurement": "Morningglory plant response rating", "setting": "[6]; [17]", "value": 55}, {"measurement": "Nutsedge, Yellow plant response rating", "setting": "[7]; [14]", "value": 35}, {"measurement": "Plant response rating, Nutsedge, Yellow", "setting": "[7]; [15]", "value": 85}, {"measurement": "Plant response rating, Nutsedge, Yellow", "setting": "[7]; [16]", "value": 90}, {"measurement": "Nutsedge, Yellow plant response rating", "setting": "[7]; [17]", "value": 70}, {"measurement": "Oilseed Rape plant response rating", "setting": "[8]; [14]", "value": 0}, {"measurement": "Plant response rating, Oilseed Rape", "setting": "[8]; [15]", "value": 5}, {"measurement": "Plant response rating, Oilseed Rape", "setting": "[8]; [16]", "value": 5}, {"measurement": "Oilseed Rape plant response rating", "setting": "[8]; [17]", "value": 5}, {"measurement": "Pigweed plant response rating", "setting": "[9]; [14]", "value": 60}, {"measurement": "Plant response rating, Pigweed", "setting": "[9]; [15]", "value": 70}, {"measurement": "Plant response rating, Pigweed", "setting": "[9]; [16]", "value": 85}, {"measurement": "Pigweed plant response rating", "setting": "[9]; [17]", "value": 65}, {"measurement": "Ragweed plant response rating", "setting": "[10]; [14]", "value": 10}, {"measurement": "Plant response rating, Ragweed", "setting": "[10]; [15]", "value": 5}, {"measurement": "Plant response rating, Ragweed", "setting": "[10]; [16]", "value": 25}, {"measurement": "Ragweed plant response rating", "setting": "[10]; [17]", "value": 5}, {"measurement": "Ryegrass, Italian plant response rating", "setting": "[11]; [14]", "value": 35}, {"measurement": "Plant response rating, Ryegrass, Italian", "setting": "[11]; [15]", "value": 60}, {"measurement": "Plant response rating, Ryegrass, Italian", "setting": "[11]; [16]", "value": 70}, {"measurement": "Ryegrass, Italian plant response rating", "setting": "[11]; [17]", "value": 50}, {"measurement": "Soybean plant response rating", "setting": "soybean (Glycine max); [14]", "value": 0}, {"measurement": "Plant response rating, Soybean", "setting": "soybean (Glycine max); [15]", "value": 0}, {"measurement": "Plant response rating, Soybean", "setting": "soybean (Glycine max); [16]", "value": 0}, {"measurement": "Soybean plant response rating", "setting": "soybean (Glycine max); [17]", "value": 0}, {"measurement": "Waterhemp plant response rating", "setting": "[12]; [14]", "value": 30}, {"measurement": "Plant response rating, Waterhemp", "setting": "[12]; [15]", "value": 80}, {"measurement": "Waterhemp plant response rating", "setting": "[12]; [17]", "value": 50}, {"measurement": "Wheat plant response rating", "setting": "[13]; [14]", "value": 0}, {"measurement": "Plant response rating, Wheat", "setting": "[13]; [15]", "value": 0}, {"measurement": "Plant response rating, Wheat", "setting": "[13]; [16]", "value": 0}, {"measurement": "Wheat plant response rating", "setting": "[13]; [17]", "value": 0}, {"measurement": "Kochia plant response rating", "setting": "kochia (Kochia scoparia); [14]", "value": 0}, {"measurement": "Plant response rating, Kochia", "setting": "kochia (Kochia scoparia); [15]", "value": 50}, {"measurement": "Plant response rating, Kochia", "setting": "kochia (Kochia scoparia); [16]", "value": 75}, {"measurement": "Kochia plant response rating", "setting": "kochia (Kochia scoparia); [17]", "value": 15}]}]}
